{"source": "paper PMC4277782", "about": "(Journal of the American Chemical Society, 2014)", "test_system": "ProcM", "experiment": "ProcM reactions with other", "format": "biochemical, Prochlorococcus MIT9313", "conditions": "preliminary; data not shown"}
{"substance": "ProcA4.3: ProcA substrate (TASGGCDTSMFCY; UniProt Q7V735 65-77, looked up)", "values": [{"measurement": "cyclization kinetics", "result": "some thioether rings form quickly, while others require a much longer time"}]}
